Results on two molecules are retold here after paper PMC4818757, “Small molecule inhibitors of the Dishevelled‐CXXC5 interaction are new drug candidates for bone anabolic osteoporosis therapy” (EMBO Molecular Medicine, 2016).

Data set [1] relates to primary calvaria cells. Put plainly: β-catenin / Runx2 immunofluorescence in primary calvaria cells. In kind it is cell-based, mouse.
Data set [2] has as its system primary calvaria cells. Put plainly: MTT cell viability of primary calvaria cells. In kind it is cell-based, mouse. The settings on record: 2 μM. How it is done:
Appendix Figure S2. The effects of Dvl-CXXC5 binding small molecule inhibitors on primary calvaria cells.
A Primary calvaria cells were treated with 2 µ M of each compound for the indicated times. The cells were subjected to an MTT assay (OD590 reading) to measure cell viability. The data are the mean ± s.d. (error […]
B Primary calvaria cells were treated with 2 µ M of each compound for 4 days. ALP activity levels were visualized by ALP staining. [n =2]
(1 picture or pasted object on this page, not shown here)

Data set [3] has as its system ovariectomized (OVX) mice. In words: OVX-induced osteoporosis mouse model. The data set is classed as in vivo. How it is done:
Figure 6 Effects of KY‐02327 on OVX‐induced osteoporosis model mice • A–H Vehicle or 20 mg of KY‐02327 per kg of animal body weight (mpk) was orally administered or 0.06 mpk of the N‐terminal fragment of PTH (amino acids 1‐34) was subcutaneously injected into the Sham‐operated (Sham) or ovariectomized (OVX) mice on 5 sequential days per week for 4 weeks (n = 4). After calcein injection, the prepared femoral sections of the OVX mice were examined under fluorescence microscope to visualize integrated calcein (A, green, arrows). Nuclei were counterstained with DAPI (A, blue). Scale bars, 100 μm. Osteoblast numbers (B) and calcein double‐labeled surfaces (C) were measured in the femoral sections. The mouse femurs were analyzed using micro‐CT, and BMD (D) and BV/TV (E) were calculated from the micro‐CT data. The three‐dimensional images of femoral trabecular bone were reconstructed (F), and trabecular number (G) and trabecular separation (H) were calculated. Data Information: The data are the mean ± s.d. (error bars). Significance was assessed using Kruskal–Wallis test.
This animal study was approved by the Institutional Review Board of Severance Hospital, Yonsei University College of Medicine. The mice were housed in filter‐topped shoebox cages with a computerized environmental control system (MJ LTD, Seoul, Korea). The care and treatment of experimental animals were performed in accordance with institutional guidelines. The room temperature was maintained at 26.5°C with a relative humidity of approximately 40–70%. The mice were given a standard maintenance diet from Dae Han Bio Link (Daejeon, Korea). For OVX mouse experiments, the surgeries were performed with 8‐week‐old female BL6 mice under anesthesia with avertin (2,2,2‐tribromoethanol; Worthington Biochemical, Freehold, NJ) as described previously (Zahoor et al, 2014). After removing the hair, dorsal incisions were made into the dermal layers above both sides of the ovaries using dissection scissors. The connection between the fallopian tube and the uterine horn was cut, and the ovary was removed. The incision was then sutured with 3 single catgut stitches. Sham mice were used as controls. After 4 weeks, the OVX group was divided into three groups for oral administration of vehicle (saline containing 10% Tween‐60) or 20 mg of KY‐02327 per kg of animal body weight (mpk) of KY‐02327, or for subcutaneous injection of 0.06 mpk of N‐terminal fragment of PTH (amino acids 1–34), which were administered for 5 sequential days per week for 4 weeks. The animals were sacrificed, and the organs were harvested for analysis. For the calcein double‐labeling experiment (Pall et al, 1987), calcein (10 mpk in 2% sodium hydrocarbonate, pH 7.4) was injected twice, on the last day of the 2nd and 3rd week. All the mice were randomly assigned to each groups, and the investigators were blinded to the group allocation during the treatments and experiments.
The mouse femurs were scanned using a micro‐CT system (Skyscan 1072; Skyscan, Aartselaar, Belgium). The scanned image data were reconstructed to create 3D images and analyzed using the CT‐Analyzing Program (Skyscan). For femoral trabecular bone analysis, the femurs were scanned with a voxel size of 10 μm, beginning at the end of the growth plate and extending proximally along the diaphysis, and 80 continuous slices (beginning at 0.1 mm from the most proximal aspect of the growth plate in which both condyles were no longer visible) were selected for analysis.
The femurs of OVX mice and the calvariae of 4‐day‐old mice were fixed in 4% paraformaldehyde in PBS. The bones were then decalcified in 10 mM EDTA and embedded in paraffin. Five‐micrometer tissue sections were deparaffinized in 100% xylene followed by re‐hydration with sequential 100% to 50% ethanol washes. The sections were stained with hematoxylin and eosin (H&E), and light micrographs were captured using a SMZ645 Nikon microscope (Nikon, Tokyo, Japan). […]

The target of data set [4] is CYP C29 (so in the source); probably CYP2C9) (Homo sapiens, UniProt P11712). Put plainly: Cytochrome P450 inhibition assay, C29. The following applies: probe fluorogenic P450 substrates. An excerpt: Appendix Table S4. Cytochrome P450 (CYP) inhibition assay with 10 µ M KY-
For data set [5], the system named is mouse embryonic fibroblast (MEF) cells. In words: qRT-PCR of pathway-specific target genes in MEF cells (off-target). In kind it is cell-based. The settings on record: 12 hours. The procedure:
To evaluate off‐target effects of KY‐02327, we monitored the transcriptional regulation of target genes of major cell signaling pathways in KY‐02327‐treated mouse embryonic fibroblast (MEF) cells (Appendix Table S2 and Appendix Fig S5). […] However, the target genes of other pathways were unaffected by the treatment of KY‐02327 (Appendix Fig S5B‐J). […]
on mouse embryonic fibroblast cells for 12 hours. The mRNA level of pathway-specific target genes (Appendix Table S2) was measured by quantitative real-time […]
Data Information: The data are the mean ± s.d. (error bars), and significance was assessed using unpaired Student’s t-test. [n =3]
Background: Quantitative PCR measures a nucleic acid by following its amplification.

[6] abbreviates: KY‐02327 20 mpk oral, PTH 0.06 mpk subcutaneous, 4 weeks.
Where [7] appears, read: KY‐02327 20 mpk oral, PTH 0.06 mpk subcutaneous, 5 days per week for 4 weeks.

Sequence of CYP C29 (so in the source); probably CYP2C9) (P11712 whole entry): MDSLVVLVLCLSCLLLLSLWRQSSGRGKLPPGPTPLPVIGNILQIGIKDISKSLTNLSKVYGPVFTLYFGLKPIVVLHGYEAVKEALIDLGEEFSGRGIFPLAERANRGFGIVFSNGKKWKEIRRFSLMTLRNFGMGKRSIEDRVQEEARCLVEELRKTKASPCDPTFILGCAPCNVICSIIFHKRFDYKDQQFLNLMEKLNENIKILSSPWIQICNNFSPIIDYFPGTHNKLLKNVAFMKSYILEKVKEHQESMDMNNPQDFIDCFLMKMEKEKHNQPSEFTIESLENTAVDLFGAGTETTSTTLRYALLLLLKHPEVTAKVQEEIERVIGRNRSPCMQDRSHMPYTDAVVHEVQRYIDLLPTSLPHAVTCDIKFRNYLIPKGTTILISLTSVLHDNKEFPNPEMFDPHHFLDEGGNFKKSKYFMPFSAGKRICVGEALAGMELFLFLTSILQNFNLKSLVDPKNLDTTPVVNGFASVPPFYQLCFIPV

For the molecule `CCOC(=O)Cn1c(C(=O)OCC)cc2cc(OS(=O)(=O)c3ccc(C)cc3)ccc21` [KY‐02061], in the data set with primary calvaria cells [1] (2 μM, 2 days), the “nuclear accumulation of β‐catenin” value was “strong accumulation”. The “levels of Runx2 and β‐catenin” value in the data set on primary calvaria cells [1] (5 μM, 14 days) is listed as “increased levels”. Moreover, in the data set with primary calvaria cells [2], the “cytotoxic effect (cell number and viability)” value is “without any cytotoxic effect”.
For the molecule `CCOC(=O)c1cc2cc(O)ccc2n1CC(=O)NCCN1CCCCC1` [KY‐02327], the “histology of livers, lungs, spleens” value in data set [3] (4 weeks treatment, H&E) is “No histological abnormalities”. Moreover, in data set [3] (4‐week treatment), the “weight of treated mice” value is recorded as “did not change significantly”. Also, in data set [3] (setting [6]), the “destroyed trabecular bones (3D micro-CT images)” value was “rescued”; the “mineral contents of the bone (BMD), femur, micro‐CT” value is given as “significantly increased”; the trabecular bone number result is listed as “increase”; the trabecular separation entry is given as “decrease”. The “volume of bone (BV/TV)” value in data set [3] (KY‐02327 20 mpk oral, PTH 0.06 mpk subcutaneous, 4 weeks, vs vehicle) is given as “increased”. In data set [3] (setting [7]), the “calcein double‐labeled surface” value was “increased”, the “new bone formation (calcein-labeled) in femur” value was “recovered” and the number of osteoblasts entry is “increased”. For the same molecule, in data set [3] (OVX mice, 20 mpk oral), the “calcein double-labelled surface, fold increase” value is “approximately 2 fold” and the “number of osteoblasts, fold increase” value is recorded as “approximately 2 fold”. In addition, the inhibition at 10 µM in data set [4] was determined as 0%. In addition, in data set [5], the “mRNA levels of Wnt/β‐catenin target genes” value is given as “significantly increased” and the “target genes of other pathways (off-target)” value is on record as “unaffected”.

As usually defined, the inhibition is the percentage by which the read-out fell short of the control.
